Here are results for 16 compounds from US20250376483A1, “PRODRUGS OF PAN-KRAS INHIBITORS” (Mirati Therapeutics, Inc., priority 2022, published 2025).

Series [1] in a line: Whole Blood Stability Assay (mouse whole blood). In kind it is in vitro ADME. The settings on record: CD-1 mouse blood, EDTA-K2, final conc. 2 μM, 37° C., 0-120 min; for half-life at 2 μM: male, fresh whole blood, read-out: Mouse Whole Blood Stability t1/2. An outline of the steps: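 Compound at 2 μM final was incubated at 37 °C in fresh EDTA-K2 blood from male CD-1 mice. Samples at 0, 10, 30, 60 and 120 min were protein-precipitated with acetonitrile and analysed by LC-MS/MS. % remaining was derived from analyte/internal-standard peak area ratios.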

Series [2] can be described thus: Plasma Stability Assay (human plasma). Type of series: in vitro ADME. The settings on record: both sexes; pooled human plasma, heparin, final conc. 2 μM, 37° C., 0-120 min; read-out: Human Plasma Stability t1/2. The procedure, abridged: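 Compound at 2 μM final in pooled heparinised plasma (3 male, 3 female), incubated at 37° C with sampling at 0, 10, 30, 60 and 120 min. Acetonitrile stop, LC-MS/MS; % remaining from analyte/internal-standard peak area ratio relative to T0.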

Bounds are passed on as bounds.

`CCc1c(F)ccc2cc(OC(=O)C3CCCC3)cc(N3CCc4c(nc(OC[C@@]56CCCN5C[C@H](F)C6)nc4N4CCC[C@]5(C4)NC(=O)NC5=O)C3)c12` [Example 42, 4-(4-((R)-2,4-dioxo-1,3,7-triazaspiro[4.5]decan-7-yl)-2-(((2R,7aS)-2-fluorotetrahydro-1H-pyrrolizin-7a(5H)-yl)methoxy)-5,8-dihydropyrido[3,4-d]pyrimidin-7(6H)-yl)-5-ethyl-6-fluoronaphthalen-2-yl cyclopentanecarboxylate]: the “Mouse Whole Blood Stability t1/2” value in series [1] stood at 1 min. Moreover, the half-life at 2 μM in series [2] amounted to 1.32 h.
`CCc1c(F)ccc2cc(OC(=O)N3CCCC3)cc(N3CCc4c(nc(OC[C@@]56CCCN5C[C@H](F)C6)nc4N4CCC[C@]5(C4)NC(=O)NC5=O)C3)c12` [Example 43, 4-(4-((R)-2,4-dioxo-1,3,7-triazaspiro[4.5]decan-7-yl)-2-(((2R,7aS)-2-fluorotetrahydro-1H-pyrrolizin-7a(5H)-yl)methoxy)-5,8-dihydropyrido[3,4-d]pyrimidin-7(6H)-yl)-5-ethyl-6-fluoronaphthalen-2-yl pyrrolidine-1-carboxylate]: the half-life at 2 μM in series [1] and in series [2] was greater than 4.82 h each time.
For `CCCCCC(=O)Oc1cc(N2CCc3c(nc(OC[C@@]45CCCN4C[C@H](F)C5)nc3N3CCC[C@]4(C3)NC(=O)NC4=O)C2)c2c(CC)c(F)ccc2c1` [Example 44, 4-(4-((R)-2,4-dioxo-1,3,7-triazaspiro[4.5]decan-7-yl)-2-(((2R,7aS)-2-fluorotetrahydro-1H-pyrrolizin-7a(5H)-yl)methoxy)-5,8-dihydropyrido[3,4-d]pyrimidin-7(6H)-yl)-5-ethyl-6-fluoronaphthalen-2-yl hexanoate], in series [1], the “Mouse Whole Blood Stability t1/2” value worked out at 1 min. Further, in series [2], the half-life at 2 μM is 2.37 h.
Consider `CCc1c(F)ccc2cc(OC(=O)N(CC)CC)cc(N3CCc4c(nc(OC[C@@]56CCCN5C[C@H](F)C6)nc4N4CCC[C@]5(C4)NC(=O)NC5=O)C3)c12` [Example 45, 4-(4-((R)-2,4-dioxo-1,3,7-triazaspiro[4.5]decan-7-yl)-2-(((2R,7aS)-2-fluorotetrahydro-1H-pyrrolizin-7a(5H)-yl)methoxy)-5,8-dihydropyrido[3,4-d]pyrimidin-7(6H)-yl)-5-ethyl-6-fluoronaphthalen-2-yl diethylcarbamate], for which the half-life at 2 μM in series [1] and in series [2] was greater than 4.82 h in each case.
For `CCc1c(F)ccc2cc(OC(=O)OC(C)(C)C)cc(N3CCc4c(nc(OC[C@@]56CCCN5C[C@H](F)C6)nc4N4CCC[C@]5(C4)NC(=O)NC5=O)C3)c12` [Example 46, tert-butyl (4-(4-((R)-2,4-dioxo-1,3,7-triazaspiro[4.5]decan-7-yl)-2-(((2R,7aS)-2-fluorotetrahydro-1H-pyrrolizin-7a(5H)-yl)methoxy)-5,8-dihydropyrido[3,4-d]pyrimidin-7(6H)-yl)-5-ethyl-6-fluoronaphthalen-2-yl) carbonate], the half-life at 2 μM in series [1] came out at 0.217 h; in series [2] it was 1.93 h.
The like results for `CCc1c(F)ccc2cc(OC(=O)C3CCCCC3)cc(N3CCc4c(nc(OC[C@@]56CCCN5C[C@H](F)C6)nc4N4CCC[C@]5(C4)NC(=O)NC5=O)C3)c12` [Example 47, 4-(4-((R)-2,4-dioxo-1,3,7-triazaspiro[4.5]decan-7-yl)-2-(((2R,7aS)-2-fluorotetrahydro-1H-pyrrolizin-7a(5H)-yl)methoxy)-5,8-dihydropyrido[3,4-d]pyrimidin-7(6H)-yl)-5-ethyl-6-fluoronaphthalen-2-yl cyclohexanecarboxylate] were, in that order, 0.0667 h and 3.72 h.
For `CCc1c(F)ccc2cc(OC(=O)N3CCCCC3)cc(N3CCc4c(nc(OC[C@@]56CCCN5C[C@H](F)C6)nc4N4CCC[C@]5(C4)NC(=O)NC5=O)C3)c12` [Example 48, 4-(4-((R)-2,4-dioxo-1,3,7-triazaspiro[4.5]decan-7-yl)-2-(((2R,7aS)-2-fluorotetrahydro-1H-pyrrolizin-7a(5H)-yl)methoxy)-5,8-dihydropyrido[3,4-d]pyrimidin-7(6H)-yl)-5-ethyl-6-fluoronaphthalen-2-yl piperidine-1-carboxylate], in that order: 1.77 h and greater than 4.82 h.
The like results for `CCCCCCCC(=O)Oc1cc(N2CCc3c(nc(OC[C@@]45CCCN4C[C@H](F)C5)nc3N3CCC[C@]4(C3)NC(=O)NC4=O)C2)c2c(CC)c(F)ccc2c1` [Example 50, 4-(4-((R)-2,4-dioxo-1,3,7-triazaspiro[4.5]decan-7-yl)-2-(((2R,7aS)-2-fluorotetrahydro-1H-pyrrolizin-7a(5H)-yl)methoxy)-5,8-dihydropyrido[3,4-d]pyrimidin-7(6H)-yl)-5-ethyl-6-fluoronaphthalen-2-yl octanoate] were, in that order, 0.217 h and 3.92 h.
With `CCCCCCCCCC(=O)Oc1cc(N2CCc3c(nc(OC[C@@]45CCCN4C[C@H](F)C5)nc3N3CCC[C@]4(C3)NC(=O)NC4=O)C2)c2c(CC)c(F)ccc2c1` [Example 51, 4-(4-((R)-2,4-dioxo-1,3,7-triazaspiro[4.5]decan-7-yl)-2-(((2R,7aS)-2-fluorotetrahydro-1H-pyrrolizin-7a(5H)-yl)methoxy)-5,8-dihydropyrido[3,4-d]pyrimidin-7(6H)-yl)-5-ethyl-6-fluoronaphthalen-2-yl decanoate], the values for the half-life at 2 μM in series [1] and in series [2] were 0.0667 h and 3.92 h, respectively.
With `CCc1c(F)ccc2cc(OCOC(=O)N(C)C)cc(N3CCc4c(nc(OC[C@@]56CCCN5C[C@H](F)C6)nc4N4CCC[C@]5(C4)NC(=O)NC5=O)C3)c12` [Example 52, ((4-(4-((R)-2,4-dioxo-1,3,7-triazaspiro[4.5]decan-7-yl)-2-(((2R,7aS)-2-fluorotetrahydro-1H-pyrrolizin-7a(5H)-yl)methoxy)-5,8-dihydropyrido[3,4-d]pyrimidin-7(6H)-yl)-5-ethyl-6-fluoronaphthalen-2-yl)oxy)methyl dimethylcarbamate], the half-life at 2 μM in series [1] and in series [2] was greater than 4.82 h throughout.
As for `CCc1c(F)ccc2cc(OC(=O)N3CCCCCC3)cc(N3CCc4c(nc(OC[C@@]56CCCN5C[C@H](F)C6)nc4N4CCC[C@]5(C4)NC(=O)NC5=O)C3)c12` [Example 53, 4-(4-((R)-2,4-dioxo-1,3,7-triazaspiro[4.5]decan-7-yl)-2-(((2R,7aS)-2-fluorotetrahydro-1H-pyrrolizin-7a(5H)-yl)methoxy)-5,8-dihydropyrido[3,4-d]pyrimidin-7(6H)-yl)-5-ethyl-6-fluoronaphthalen-2-yl azepane-1-carboxylate], the half-life at 2 μM in series [1] and in series [2] was greater than 4.82 h throughout.
Regarding `CCc1c(F)ccc2cc(OC(=O)N3CCCCCCC3)cc(N3CCc4c(nc(OC[C@@]56CCCN5C[C@H](F)C6)nc4N4CCC[C@]5(C4)NC(=O)NC5=O)C3)c12` [Example 54, 4-(4-((R)-2,4-dioxo-1,3,7-triazaspiro[4.5]decan-7-yl)-2-(((2R,7aS)-2-fluorotetrahydro-1H-pyrrolizin-7a(5H)-yl)methoxy)-5,8-dihydropyrido[3,4-d]pyrimidin-7(6H)-yl)-5-ethyl-6-fluoronaphthalen-2-yl azocane-1-carboxylate], the half-life at 2 μM in series [1] and in series [2] was greater than 4.82 h throughout.
On to `CCc1c(F)ccc2cc(OC(=O)N3CCCC[C@@H]3C)cc(N3CCc4c(nc(OC[C@@]56CCCN5C[C@H](F)C6)nc4N4CCC[C@]5(C4)NC(=O)NC5=O)C3)c12` [Example 55, 4-(4-((R)-2,4-dioxo-1,3,7-triazaspiro[4.5]decan-7-yl)-2-(((2R,7aS)-2-fluorotetrahydro-1H-pyrrolizin-7a(5H)-yl)methoxy)-5,8-dihydropyrido[3,4-d]pyrimidin-7(6H)-yl)-5-ethyl-6-fluoronaphthalen-2-yl(S)-2-methylpiperidine-1-carboxylate], for which the half-life at 2 μM in series [1] and in series [2] was greater than 4.82 h in each case.
`CCc1c(F)ccc2cc(OC(=O)N3CCC(C)CC3)cc(N3CCc4c(nc(OC[C@@]56CCCN5C[C@H](F)C6)nc4N4CCC[C@]5(C4)NC(=O)NC5=O)C3)c12` [Example 56, 4-(4-((R)-2,4-dioxo-1,3,7-triazaspiro[4.5]decan-7-yl)-2-(((2R,7aS)-2-fluorotetrahydro-1H-pyrrolizin-7a(5H)-yl)methoxy)-5,8-dihydropyrido[3,4-d]pyrimidin-7(6H)-yl)-5-ethyl-6-fluoronaphthalen-2-yl 4-methylpiperidine-1-carboxylate]: the half-life at 2 μM in series [1] and in series [2] was greater than 4.82 h in each case.
On to `CCc1c(F)ccc2cc(OC(=O)N3CCCC[C@H]3C)cc(N3CCc4c(nc(OC[C@@]56CCCN5C[C@H](F)C6)nc4N4CCC[C@]5(C4)NC(=O)NC5=O)C3)c12` [Example 57, 4-(4-((R)-2,4-dioxo-1,3,7-triazaspiro[4.5]decan-7-yl)-2-(((2R,7aS)-2-fluorotetrahydro-1H-pyrrolizin-7a(5H)-yl)methoxy)-5,8-dihydropyrido[3,4-d]pyrimidin-7(6H)-yl)-5-ethyl-6-fluoronaphthalen-2-yl (R)-2-methylpiperidine-1-carboxylate], for which the half-life at 2 μM in series [1] and in series [2] was greater than 4.82 h each time.
Regarding `CCc1c(F)ccc2cc(OC(=O)N3CCC[C@@H](C)C3)cc(N3CCc4c(nc(OC[C@@]56CCCN5C[C@H](F)C6)nc4N4CCC[C@]5(C4)NC(=O)NC5=O)C3)c12` [Example 58, 4-(4-((R)-2,4-dioxo-1,3,7-triazaspiro[4.5]decan-7-yl)-2-(((2R,7aS)-2-fluorotetrahydro-1H-pyrrolizin-7a(5H)-yl)methoxy)-5,8-dihydropyrido[3,4-d]pyrimidin-7(6H)-yl)-5-ethyl-6-fluoronaphthalen-2-yl (R)-3-methylpiperidine-1-carboxylate], the half-life at 2 μM in series [1] and in series [2] was greater than 4.82 h in each case.
